Measured values as given in ChEMBL document CHEMBL1201862, “PubChem BioAssay data set” (2004).
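These data come from cells grown in 96-well plates and exposed to compound for 48 hours at five concentrations. At the GI50, growth is halved.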 The source made the active and inactive calls. No stated cut-off is given here; in the data, active = GI50 up to about 1.1 µM and inactive = higher. Where a SMILES comes first, the peptide text is derived from it. The star is where a group is joined. Boc = CC(C)(C)OC(=O)*

What was measured:
Assay in all cases: NCI tumour cell line growth inhibition, 48 h
786-0 = system: 786-0
BT-549 = system: BT-549
CAKI-1 = system: CAKI-1
CCRF-CEM = system: CCRF-CEM
HOP-62 = system: HOP-62
MCF7 = system: MCF7
MDA-N = system: MDA-N
MOLT-4 = system: MOLT-4
Malme-3M = system: Malme-3M
OVCAR-3 = system: OVCAR-3
OVCAR-5 = system: OVCAR-5
SF-268 = system: SF-268
T47D = system: T47D
UACC-257 = system: UACC-257
DU-145 = system: DU-145
MDA-MB-231 = system: MDA-MB-231
NCI-H226 = system: NCI-H226
NCI-H460 = system: NCI-H460
SNB-75 = system: SNB-75
TK-10 = system: TK-10

Measured: GI50

COc1cc(Br)cc2c1O[C@H]1C(=O)CC3CC21CCN3C (stereo not given in full)
inactive: 786-0 51.6 µM | BT-549 48.4 µM | CAKI-1 74.1 µM | CCRF-CEM 4.09 µM | HOP-62 > 100 µM | MCF7 34.1 µM | MDA-N 66.2 µM | MOLT-4 25 µM | Malme-3M > 100 µM | OVCAR-3 > 100 µM | OVCAR-5 > 100 µM | SF-268 80 µM | T47D 23.2 µM | UACC-257 35.8 µM

Nc1nc(Cl)c(CO)c(NCC2(CO)CCC2)n1
inactive: 786-0 > 100 µM | BT-549 > 100 µM | CAKI-1 > 100 µM | CCRF-CEM > 100 µM | DU-145 > 100 µM | HOP-62 > 100 µM | MCF7 > 100 µM | MDA-MB-231 > 100 µM | MDA-N > 100 µM | MOLT-4 > 100 µM | Malme-3M > 100 µM | NCI-H226 > 100 µM | NCI-H460 > 100 µM | OVCAR-3 > 100 µM | OVCAR-5 > 100 µM | SF-268 > 100 µM | SNB-75 > 100 µM | TK-10 > 100 µM | UACC-257 > 100 µM

CC1=CCC[C@H]2[C@](C)(CC3=CC(=O)C(SCC(C)C)=CC3=O)[C@@H](C)CC[C@]12C
inactive: 786-0 14 µM | BT-549 17.6 µM | CAKI-1 11.3 µM | CCRF-CEM 1.79 µM | DU-145 14.7 µM | HOP-62 14.6 µM | MCF7 9.71 µM | MDA-MB-231 24.6 µM | MOLT-4 1.53 µM | NCI-H226 11.8 µM | NCI-H460 14.6 µM | OVCAR-3 17.4 µM | OVCAR-5 18.5 µM | SNB-75 10.9 µM | T47D 2.25 µM | TK-10 16.7 µM | UACC-257 17.3 µM

CCOC(=O)NC(=S)c1ccc(O)c2ccccc12
inactive: 786-0 > 100 µM | BT-549 23 µM | CAKI-1 44.2 µM | CCRF-CEM 8.63 µM | DU-145 > 100 µM | HOP-62 77.1 µM | MCF7 72.1 µM | MDA-N 26.4 µM | MOLT-4 36.1 µM | Malme-3M 33.1 µM | NCI-H460 38.8 µM | OVCAR-3 49.8 µM | OVCAR-5 > 100 µM | SF-268 12.4 µM | T47D > 100 µM | UACC-257 > 100 µM

COC(=O)C(Cc1c[nH]c2ccccc12)NC(=O)C(Cc1c[nH]c2ccccc12)NC(=O)C(Cc1c[nH]c2ccccc12)NC(=O)OC(C)(C)C (stereo not drawn) (Boc-Trp-Trp-Trp-OMe; configuration not given here)
inactive: 786-0 17.8 µM | BT-549 18.1 µM | HOP-62 17.9 µM | MCF7 > 10 µM | MDA-MB-231 30.1 µM | MDA-N 20 µM | MOLT-4 17.3 µM | Malme-3M > 100 µM | NCI-H226 16.5 µM | NCI-H460 20.2 µM | OVCAR-5 17.9 µM | SNB-75 19.8 µM | T47D 4.67 µM | TK-10 25.5 µM | UACC-257 32.7 µM

CC1(C)CC(=O)C(=CNC(N)=S)C(=O)C1
inactive: 786-0 > 100 µM | BT-549 > 100 µM | CAKI-1 > 100 µM | CCRF-CEM > 100 µM | DU-145 > 100 µM | HOP-62 > 100 µM | MCF7 > 100 µM | MDA-MB-231 > 100 µM | MDA-N > 100 µM | MOLT-4 > 100 µM | NCI-H226 > 100 µM | NCI-H460 > 100 µM | OVCAR-3 > 100 µM | OVCAR-5 > 100 µM | SF-268 > 100 µM | SNB-75 > 100 µM | TK-10 > 100 µM | UACC-257 > 100 µM

Cn1c(=O)c2c(ncn2CCNC(CO)C(O)c2ccc([N+](=O)[O-])cc2)n(C)c1=O (stereo not given)
inactive: 786-0 > 100 µM | BT-549 > 100 µM | CAKI-1 > 100 µM | CCRF-CEM > 100 µM | HOP-62 > 100 µM | MCF7 > 100 µM | MDA-MB-231 > 100 µM | MDA-N > 100 µM | MOLT-4 > 100 µM | Malme-3M > 100 µM | NCI-H226 > 100 µM | NCI-H460 > 100 µM | OVCAR-3 > 100 µM | SF-268 > 100 µM | T47D 5.64 µM | TK-10 > 100 µM | UACC-257 > 100 µM

c1ccc2c(c1)ccc1nc(-c3ccc4c(c3)OCO4)c3c(c12)CCC3
inactive: 786-0 > 100 µM | BT-549 > 100 µM | CAKI-1 > 100 µM | CCRF-CEM 74.5 µM | HOP-62 > 100 µM | MCF7 68.1 µM | MDA-MB-231 67.5 µM | MDA-N > 100 µM | MOLT-4 42.8 µM | Malme-3M > 100 µM | NCI-H226 > 100 µM | NCI-H460 45.3 µM | OVCAR-3 > 100 µM | OVCAR-5 > 100 µM | SF-268 > 100 µM | SNB-75 > 100 µM | T47D 52.4 µM | UACC-257 > 100 µM

Cc1ccc(Oc2cc(C)ccc2P(=O)(O)O)cc1
inactive: 786-0 > 100 µM | BT-549 > 100 µM | CAKI-1 > 100 µM | CCRF-CEM > 100 µM | DU-145 > 100 µM | HOP-62 > 100 µM | MCF7 > 100 µM | MDA-MB-231 > 100 µM | MDA-N > 100 µM | MOLT-4 > 100 µM | NCI-H226 > 100 µM | OVCAR-3 > 100 µM | SF-268 > 100 µM | SNB-75 > 100 µM | TK-10 > 100 µM | UACC-257 > 100 µM

CC(=O)NC1(c2cc3ccccc3s2)CCCCCC1
inactive: 786-0 34.7 µM | BT-549 58.9 µM | CAKI-1 52.6 µM | CCRF-CEM 20.7 µM | DU-145 51.3 µM | HOP-62 46.7 µM | MCF7 37.2 µM | MDA-MB-231 40.4 µM | MDA-N 48.4 µM | MOLT-4 18.5 µM | NCI-H226 42.3 µM | NCI-H460 36.6 µM | OVCAR-3 21.6 µM | OVCAR-5 36.7 µM | SF-268 21.3 µM | SNB-75 31 µM | TK-10 47.5 µM | UACC-257 40 µM

Clc1ccccc1NN(Cc1ccncc1)c1ccccc1Cl
inactive: 786-0 13.7 µM | BT-549 19.1 µM | DU-145 17.5 µM | HOP-62 15.8 µM | MCF7 22.3 µM | MDA-MB-231 13.6 µM | MDA-N 13.5 µM | MOLT-4 15.5 µM | Malme-3M 17.7 µM | NCI-H226 21 µM | OVCAR-3 13.5 µM | OVCAR-5 17.5 µM | SF-268 18.1 µM | SNB-75 17.5 µM

CC(=O)CCn1c(=S)sc2ccccc21
inactive: 786-0 > 100 µM | BT-549 > 100 µM | CAKI-1 49.7 µM | CCRF-CEM 25.6 µM | DU-145 > 100 µM | HOP-62 > 100 µM | MCF7 > 100 µM | MDA-MB-231 > 100 µM | MDA-N > 100 µM | MOLT-4 > 100 µM | NCI-H226 > 100 µM | NCI-H460 > 100 µM | OVCAR-3 > 100 µM | OVCAR-5 > 100 µM | SF-268 > 100 µM | SNB-75 > 100 µM | TK-10 > 100 µM | UACC-257 > 100 µM
